{
  "source": "patent US6110491A",
  "about": "“Compound-loaded liposomes and methods for their preparation” (Hermes Biosciences, Inc., priority 1997, dated 2000)",
  "key": {"[1]": {"experiment": "Doxorubicin loading into liposomes with entrapped polyacrylate / chondroitin sulfate A (Examples 1, 3)", "format": "physicochemical", "experimental": "21.6 mg of polyacrylic acid (molecular weight 2,000; Aldrich Corporation, Milwaukee, Wis.) were dissolved in 3 ml of water and neutralized to pH 7.4 with NaOH to produce 100 milli-eq/L sodium polyacrylate solution. 10 mg of the mixture of egg PC, cholesterol, and PEG (molecular weight 2,000)-DSPE (Avanti Polar Lipids, Birmingham, Ala.) in the molar ratio of 10:5:1 was dissolved in chloroform, the solvent was evaporated in vacuum, the lipid film was incubated with shaking in 1 ml of the above polyacrylate solution, and the lipid dispersion was extruded under pressure through 2 stacked Nucleopore (Pleasanton, Calif.) membranes with pore size […]. […] To the so obtained liposomes, doxorubicin (Cetus Oncology, Norwalk, Conn.) was added at 200 nmol/μmol, of liposomal phospholipid. The mixture was incubated overnight at 37° C. with shaking, treated with Dowex 50W×4 (Sigma Chemical Co., St. Louis, Mo.), and equilibrated with NaCl-HEPES solution to remove non-encapsulated doxorubicin. The resulting liposomes were sterilized by filtration through a […] filter and assayed for doxorubicin by spectrophotometry and liposomal phospholipid by acid digestion-molybdene blue assay. […] Under similar conditions, doxorubicin loading into liposomes without entrapped sodium polyacrylate was 8 nmol/μmol of phospholipid.\nLiposomes were prepared as in Example 1, except that inner buffer, instead of polyacrylic acid, contained 5 mg/ml of chondroitinsulfate A (Sigma Chemical Co., St. Louis, Mo.). After overnight incubation with doxorubicin ([…] of phospholipid) at pH 7.2, free drug was removed from the liposomes, and the liposomes were assayed as in Example 1. The doxorubicin content in the resulting liposomes was 26.0 nmol/μmol of phospholipid."}, "[2]": {"tested_on": "Human nasopharyngeal epidermoid carcinoma (KB) cells", "experiment": "Cytotoxicity, growth inhibition by tetrazolium assay (96 hour incubation)", "format": "cell-based", "settings": "read-out: 50% growth inhibitory concentration (IC50)", "experimental": "Human nasopharyngeal epidermoid carcinoma (KB) cells were from American Type Culture Collection (ATCC, Rockville, M.D.). The cells were grown in RPMI 1640 medium supplemented with 10% heat inactivated fetal calf serum, harvested by trypsinization, and plated in 96-well tissue culture plates at 2×10^4 cells/well. After a 24 hour acclimation period, a solution of free doxorubicin or the doxorubicin liposomes described in Example 1 were added to the cells to achieve final doxorubicin concentrations of 0.125-8 μg/ml. \"Empty\" liposomes were added to control cells at matching concentrations of the lipid. After a 96 hour incubation period, viability of the cells was measured by tetrazolium assay (Carmichael, et al., 1987). 50% growth inhibitory concentrations (IC50) of the studied preparation were as follows: […]"}, "[3]": {"experiment": "Doxorubicin loading into liposomes with entrapped sodium salts of sulfuric, phosphoric, polyvinylsulfuric or polyphosphoric acid, without or with nigericin (Examples 4, 5)", "format": "physicochemical", "experimental": "Liposomes were prepared from egg phosphatidylcholine using the procedure identical to Example 1 but instead of polyacrylic acid, the inner buffers contained one of the following salts: sodium sulfate, sodium phosphate, sodium polyvinylsulfate (Fluka, Ronkonkoma, N.Y.; average chain length n=13), or sodium polyphosphate (Sigma Chemical Co.; average chain length n=13-18), at a concentration of 100 mill-equivalents of sodium/L. The liposomes were incubated with doxorubicin (300 nmol/μmol of phospholipid) overnight, free drug was removed from the liposomes, and the liposomes were assayed as described in Example 1. Drug incorporation into the liposomes was as follows (in nmol/μmol of phospholipid): sodium sulfate, 82.1±0.95; sodium phosphate, 76.8±2.3; sodium polyvinylsulfate, 109.8±0.25; sodium polyphosphate, 85.2±2.2; \"blank\" liposomes, containing 100 mM sodium chloride, 1.03±0.06.\nLiposomes were prepared and loading with doxorubicin as in Example 4, except that prior to drug loading, nigericin was added to the liposomes at a concentration of 5 μmol/L. The following drug incorporation (nmol/μmol of phospholipid) was obtained in the liposomes containing: sodium sulfate, 96.5±1.9; sodium phosphate, 271.9±3.8; sodium polyvinylsulfate, 133.7±1.9; sodium polyphosphate, 169.7±2.7."}, "[4]": {"experiment": "Effect of membrane-active ion carriers on loading of doxorubicin into liposomes with entrapped potassium polyacrylate (Example 6, FIG. 1)", "format": "physicochemical", "settings": "valinomycin, CCCP or nigericin vs. none (FIG. 1)", "from_the_text": "The liposomes prepared according to the present invention can be clearly distinguished from similar liposomes prepared by pH gradient, or ammonium ion gradient methods, by the liposomal response to membrane-active ion carriers which destroy transmembrane electrochemical gradients. For example, CCCP is a membrane proton carrier which destroys transmembrane pH gradients and leads to quick release of a liposomal-entrapped compound.\nIn contrast, liposomes prepared according to this invention, load doxorubicin in the presence of CCCP or nigericin with nearly the same efficiency as in the absence of such membrane-active ion carriers. This is shown in FIG. 1, where the loading of doxorubicin into liposomes in the presence of valinomycin, CCCP or nigericin was determined as a function of time. The liposomes were prepared as described in Example 1 to have entrapped potassium polyacrylate."}, "[5]": {"experiment": "Doxorubicin precipitation by Inner Buffer anions (Example 9)", "format": "physicochemical", "settings": "for Doxorubicin precipitation: 1 mg/ml, 22° C., 3 hours", "experimental": "Doxorubicin hydrochloride was added to the aliquots of Inner Buffers described in the Example 8 above to achieve final concentration of 1 mg/ml. The mixtures were briefly incubated at 60° C. to effect maximum drug dissolution, and further equilibrated at ambient temperature (22° C.) with gentle shaking for 3 hours. Precipitated doxorubicin was separated by centrifugation of an Eppendorf centrifuge (10,000 rpm, 5 min.), and the amount of doxorubicin in supernatant fluid was determined by spectrophotometry. The percent of drug precipitation was calculated as 100% less the percent of doxorubicin remaining in the supernatant fluid relative to the total added doxorubicin."}, "[6]": {"settings": "liposomes loaded by the ammonium ion method (Haran, et al., 1993); cited from earlier work"}},
  "note": "“Also recorded” adds a separate entry of the source.",
  "data": [
    {"smiles": "COc1cccc2c1C(=O)c1c(O)c3c(c(O)c1C2=O)C[C@@](O)(C(=O)CO)C[C@@H]3O[C@H]1C[C@H](N)[C@H](O)[C@H](C)O1", "note": "[doxorubicin]", "values": [
      {"measurement": "Doxorubicin content in the resulting liposomes", "setting": "[1]; entrapped chondroitin sulfate A 5 mg/ml, overnight, pH 7.2", "result": "26.0 nmol/μmol of phospholipid"},
      {"measurement": "Doxorubicin content of liposomes", "setting": "[1]; entrapped sodium polyacrylate, egg PC/cholesterol/PEG-DSPE, doxorubicin 200 nmol/μmol, overnight 37° C.", "result": "129 nmol/μmol of liposomal phospholipid"},
      {"measurement": "Doxorubicin loading into liposomes", "setting": "[1]; without entrapped sodium polyacrylate, similar conditions", "result": "8 nmol/μmol of phospholipid"},
      {"measurement": "IC50", "setting": "[2]", "result": 0.35, "unit": "µg/mL"},
      {"measurement": "Drug incorporation into the liposomes", "setting": "[3]; \"blank\" liposomes containing 100 mM sodium chloride, doxorubicin 300 nmol/μmol", "result": "1.03±0.06 nmol/μmol of phospholipid"},
      {"measurement": "Drug incorporation into the liposomes", "setting": "[3]; entrapped sodium phosphate, doxorubicin 300 nmol/μmol, overnight, no nigericin", "result": "76.8±2.3 nmol/μmol of phospholipid"},
      {"measurement": "Drug incorporation into the liposomes", "setting": "[3]; entrapped sodium phosphate, nigericin 5 μmol/L", "result": "271.9±3.8 nmol/μmol of phospholipid"},
      {"measurement": "Drug incorporation into the liposomes", "setting": "[3]; entrapped sodium polyphosphate, doxorubicin 300 nmol/μmol, overnight, no nigericin", "result": "85.2±2.2 nmol/μmol of phospholipid"},
      {"measurement": "Drug incorporation into the liposomes", "setting": "[3]; entrapped sodium polyphosphate, nigericin 5 μmol/L", "result": "169.7±2.7 nmol/μmol of phospholipid"},
      {"measurement": "Drug incorporation into the liposomes", "setting": "[3]; entrapped sodium polyvinylsulfate, doxorubicin 300 nmol/μmol, overnight, no nigericin", "result": "109.8±0.25 nmol/μmol of phospholipid"},
      {"measurement": "Drug incorporation into the liposomes", "setting": "[3]; entrapped sodium polyvinylsulfate, nigericin 5 μmol/L", "result": "133.7±1.9 nmol/μmol of phospholipid"},
      {"measurement": "Drug incorporation into the liposomes", "setting": "[3]; entrapped sodium sulfate, doxorubicin 300 nmol/μmol, overnight, no nigericin", "result": "82.1±0.95 nmol/μmol of phospholipid"},
      {"measurement": "Drug incorporation into the liposomes", "setting": "[3]; entrapped sodium sulfate, nigericin 5 μmol/L", "result": "96.5±1.9 nmol/μmol of phospholipid"},
      {"measurement": "Effect of nigericin on drug loading", "setting": "[3]; permeabilization of liposome membrane by nigericin 5 μmol/L", "result": "did not decrease drug loading"},
      {"measurement": "Doxorubicin loading in presence of membrane-active ion carriers", "setting": "[4]", "result": "substantially equal efficiency; also recorded: substantially unaffected"},
      {"measurement": "correlation coefficient R, extent of drug loading vs. drug solubility in Inner Buffer", "setting": "[5]; Examples 8 and 9", "result": 0.9043},
      {"measurement": "Doxorubicin precipitation", "setting": "[5]; inner buffer anion DTPA", "result": 58.1, "unit": "%"},
      {"measurement": "Doxorubicin precipitation", "setting": "[5]; inner buffer anion L(+)-tartrate", "result": 25.0, "unit": "%"},
      {"measurement": "Doxorubicin precipitation", "setting": "[5]; inner buffer anion chloride", "result": 1.1, "unit": "%"},
      {"measurement": "Doxorubicin precipitation", "setting": "[5]; inner buffer anion citrate", "result": 81.4, "unit": "%"},
      {"measurement": "Doxorubicin precipitation", "setting": "[5]; inner buffer anion methanesulfonate", "result": 0, "unit": "%"},
      {"measurement": "Doxorubicin precipitation", "setting": "[5]; inner buffer anion nitrate", "result": 0, "unit": "%"},
      {"measurement": "Doxorubicin precipitation", "setting": "[5]; inner buffer anion phosphate", "result": 73.7, "unit": "%"},
      {"measurement": "Doxorubicin precipitation", "setting": "[5]; inner buffer anion polyacrylate", "result": 98.4, "unit": "%"},
      {"measurement": "Doxorubicin precipitation", "setting": "[5]; inner buffer anion sulfate", "result": 47.5, "unit": "%"},
      {"measurement": "Doxorubicin release by nigericin", "setting": "[6]", "result": "quickly releases"}
    ]}
  ]
}
